Source: ChEMBL document CHEMBL1134811, “Hydrophobicity, a physicochemical factor in the inhibition of the enzyme estrone sulfatase (ES)” (Bioorg Med Chem Lett, 2001)

Legend:
[1] = Partition coefficient (logP); format: physicochemical; settings: octanol/water
[2] = target: T1, Steryl-sulfatase (Homo sapiens) (UniProt P08842); test: Inhibitory activity against estrone sulfatase relative to 4-Methylcoumarin-7-O-sulfamate derivative (COUMATE)
T1 sequence (whole entry): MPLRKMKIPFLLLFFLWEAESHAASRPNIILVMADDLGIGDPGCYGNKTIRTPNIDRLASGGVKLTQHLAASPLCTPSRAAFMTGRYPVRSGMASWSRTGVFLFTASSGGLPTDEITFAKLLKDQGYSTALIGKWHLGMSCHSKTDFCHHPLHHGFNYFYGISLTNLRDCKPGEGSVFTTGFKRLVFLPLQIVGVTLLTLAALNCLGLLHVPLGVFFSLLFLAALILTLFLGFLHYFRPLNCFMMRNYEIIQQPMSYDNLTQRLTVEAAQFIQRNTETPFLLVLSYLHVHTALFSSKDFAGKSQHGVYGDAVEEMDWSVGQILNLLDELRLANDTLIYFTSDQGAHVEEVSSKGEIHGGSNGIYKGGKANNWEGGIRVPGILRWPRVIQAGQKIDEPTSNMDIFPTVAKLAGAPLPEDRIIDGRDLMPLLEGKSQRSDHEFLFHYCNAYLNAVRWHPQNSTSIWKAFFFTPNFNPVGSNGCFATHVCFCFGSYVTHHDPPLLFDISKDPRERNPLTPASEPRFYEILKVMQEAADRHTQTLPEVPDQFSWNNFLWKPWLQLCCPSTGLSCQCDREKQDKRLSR

[3] = target: T1, Steryl-sulfatase (Homo sapiens); test: Inhibitory activity against estrone sulfatase relative to Estrone-3-sulfamate (EMATE)
[4] = target: T1, Steryl-sulfatase (Homo sapiens)
Description: Inhibitory activity against estrone sulfatase expressed as potency

| logP [1] | Potency [2] | Potency [3] | Structure (SMILES) | Potency [4] |
| --- | --- | --- | --- | --- |
| 2.9 | 0.191 | 0.0079 | NS(=O)(=O)Oc1ccc(C(=O)c2ccccc2)cc1 |  |
| 4.1 | 3.53 | 0.147 | CCCCCCCCC(=O)c1ccc(OS(N)(=O)=O)cc1 |  |
| 4.4 | 0.923 | 0.0385 | CCCCCCCCCC(=O)c1ccc(OS(N)(=O)=O)cc1 |  |
| 2.1 | 0.301 | 0.0126 | CCCC(=O)c1ccc(OS(N)(=O)=O)cc1 |  |
| 2.5 | 0.574 | 0.0239 | CCCCC(=O)c1ccc(OS(N)(=O)=O)cc1 |  |
| 1.1 | 0.0397 | 0.0016 | CC(=O)c1ccc(OS(N)(=O)=O)cc1 |  |
| 1.7 |  | 0.0417 | Cc1cc(=O)oc2cc(OS(N)(=O)=O)ccc12 | 1 |
| 3.3 | 2.4 | 0.1 | CCCCCCC(=O)c1ccc(OS(N)(=O)=O)cc1 |  |
| 1.4 | 0.0472 | 0.0019 | NS(=O)(=O)Oc1ccc(C=O)cc1 |  |
| 3.4 | 0.0456 | 0.0019 | NS(=O)(=O)Oc1ccc(C(=O)/C=C/c2ccccc2)cc1 |  |
| 3.7 | 2.14 | 0.0893 | CCCCCCCC(=O)c1ccc(OS(N)(=O)=O)cc1 |  |
| 2.9 | 0.364 | 0.0152 | NS(=O)(=O)Oc1ccc(C(=O)Cc2ccccc2)cc1 |  |

| Structure (SMILES) | logP [1] | Potency [2] | Potency [3] | Potency [4] |
| --- | --- | --- | --- | --- |
| C[C@]12CC[C@@H]3c4ccc(OS(N)(=O)=O)cc4CCC3[C@@H]1CCC2=O (single isomer, unassigned) [EMATE] | 3.9 | 24 |  | 1 |
